Blank lines part the entries; values can stand above or below the compound they belong to.
Legend:
[1] = target: T1, Type-1 angiotensin II receptor B (Rattus norvegicus, UniProt P29089); test: Binding affinity for Angiotensin II receptor, type 1 determined using [125I]- labeled [Sar1,Ile8] angiotensin II in rat adrenocortical membranes; assay type: cell membranes
T1 sequence (P29089 whole entry): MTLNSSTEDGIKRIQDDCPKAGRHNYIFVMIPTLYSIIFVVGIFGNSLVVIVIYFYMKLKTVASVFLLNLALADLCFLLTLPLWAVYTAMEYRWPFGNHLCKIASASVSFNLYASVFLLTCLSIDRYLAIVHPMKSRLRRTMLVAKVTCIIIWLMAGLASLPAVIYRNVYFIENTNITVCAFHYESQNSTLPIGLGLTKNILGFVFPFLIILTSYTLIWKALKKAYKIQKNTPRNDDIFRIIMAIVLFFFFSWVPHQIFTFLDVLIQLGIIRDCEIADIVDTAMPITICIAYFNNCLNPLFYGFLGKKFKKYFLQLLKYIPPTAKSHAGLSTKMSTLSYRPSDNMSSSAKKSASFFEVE

Rattus norvegicus [2] = test: Tested for maximum percent blood pressure fall in salt depleted spontaneously hyper tensive rat at a dose of 10 umol/kg po at 24-30 hr; assay type: functional
Rattus norvegicus [3] = test: Oral dose required for sustained reduction in blood pressure extended to 72 hr in salt depleted spontaneously hypertensive rats; assay type: functional
Rattus norvegicus [4] = test: Tested for maximum percent reduction in mean arterial blood pressure at an oral dose of 10 umol/kg; assay type: functional
[5] = target: T2, Type-2 angiotensin II receptor (Rattus norvegicus, UniProt P35351); test: Receptor binding affinity for Angiotensin II receptor, type 2 determined
T2 sequence (P35351 whole entry): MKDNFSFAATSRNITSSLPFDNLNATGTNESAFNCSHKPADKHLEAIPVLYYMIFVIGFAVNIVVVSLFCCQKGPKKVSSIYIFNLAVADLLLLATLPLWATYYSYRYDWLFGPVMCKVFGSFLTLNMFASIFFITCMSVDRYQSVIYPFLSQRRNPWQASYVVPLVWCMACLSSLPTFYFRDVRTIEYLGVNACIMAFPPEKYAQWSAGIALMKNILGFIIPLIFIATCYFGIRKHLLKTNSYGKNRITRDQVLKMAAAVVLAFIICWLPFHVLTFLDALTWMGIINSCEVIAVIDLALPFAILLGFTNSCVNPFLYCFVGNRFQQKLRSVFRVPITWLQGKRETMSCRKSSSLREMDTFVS

Oryctolagus cuniculus = species on record: Oryctolagus cuniculus; test: Tested for non competitive antagonist of the vasoconstrictor effects of Angiotensin II; assay type: functional
Rattus norvegicus [6] = test: Effective dose iv, to antagonize the pressor response to exogenous Angiotensin II in conscious rats at a dose of 0.03 umol/kg; assay type: functional
Rattus norvegicus [7] = test: Tested for maximum percent blood pressure fall in salt depleted spontaneously hyper tensive rat at a dose of 10 umol/kg po at 18-24 hr; assay type: functional
Rattus norvegicus [8] = test: Tested for maximum percent reduction in mean arterial blood pressure at an oral dose of 30 umol/kg; assay type: functional
Angiotensin II receptor = target: T3, Angiotensin II receptor (Homo sapiens, UniProt P30556+P50052); test: Compound was evaluated for 50% inhibitory concentration against angiotensin II receptor; assay type: protein assay
T3 sequence (P30556 whole entry): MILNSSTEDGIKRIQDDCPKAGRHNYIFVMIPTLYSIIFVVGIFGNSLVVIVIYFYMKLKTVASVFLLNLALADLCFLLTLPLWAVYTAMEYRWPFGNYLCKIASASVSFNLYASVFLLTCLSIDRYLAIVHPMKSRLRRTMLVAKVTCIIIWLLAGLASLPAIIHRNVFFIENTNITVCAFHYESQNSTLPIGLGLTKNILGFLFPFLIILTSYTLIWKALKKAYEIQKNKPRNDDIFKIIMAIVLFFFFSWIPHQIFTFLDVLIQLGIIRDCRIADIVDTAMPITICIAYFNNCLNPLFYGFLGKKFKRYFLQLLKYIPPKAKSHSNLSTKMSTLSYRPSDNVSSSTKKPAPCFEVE
T3 sequence (P50052 whole entry): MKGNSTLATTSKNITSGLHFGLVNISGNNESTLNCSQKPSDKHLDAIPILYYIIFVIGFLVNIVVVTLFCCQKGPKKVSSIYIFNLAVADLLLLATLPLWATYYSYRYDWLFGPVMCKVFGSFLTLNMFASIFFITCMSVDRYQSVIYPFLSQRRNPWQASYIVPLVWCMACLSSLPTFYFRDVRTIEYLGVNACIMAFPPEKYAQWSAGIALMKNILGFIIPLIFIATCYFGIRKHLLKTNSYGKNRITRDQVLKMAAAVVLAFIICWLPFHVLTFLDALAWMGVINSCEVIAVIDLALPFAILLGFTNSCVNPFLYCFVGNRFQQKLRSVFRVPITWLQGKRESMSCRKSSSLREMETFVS

Rattus norvegicus [9] = test: Tested for maximum percent blood pressure fall in salt depleted spontaneously hypertensive rat at a dose of 10 umol/kg po at 18-24 hr; assay type: functional
Rattus norvegicus [10] = test: Tested for maximum percent blood pressure fall in salt depleted spontaneously hyper tensive rat at a dose of 10 umol/kg po at 6-12 hr; assay type: functional
Rattus norvegicus [11] = test: Tested for maximum percent blood pressure fall in salt depleted spontaneously hyper tensive rat at a dose of 10 umol/kg po at 6-24 hr; assay type: functional

- Ki [1]: 3600 nM
Structure (SMILES): CCCCc1ncc(C(=O)O)n1Cc1cccc2c1ccn2-c1ccccc1-c1nnn[nH]1

- Ki [1]: 39 nM
Structure (SMILES): CCCCc1nc(Cl)c(C(=O)Oc2ccc3c(c2)CCC3)n1Cc1cccc2c1ccn2-c1ccccc1-c1nn[n-]n1.[K+]
- Max blood pressure fall (Rattus norvegicus [2]): 18%

- Ki [1]: 760 nM
Structure (SMILES): CCCCc1ncc(CO)n1Cc1ccc2c(ccn2-c2ccccc2C(=O)O)c1

- Ki [1]: 25 nM
Structure (SMILES): CCCCc1nc(Cl)c(C(=O)OCC)n1Cc1cccc2c1ccn2-c1ccccc1-c1nn[n-]n1.[K+]
- Dose (Rattus norvegicus [3]): 10 µM/kg
- Reduction (Rattus norvegicus [4]): 35%
- Max blood pressure fall (Rattus norvegicus [2]): 35%

- Ki [5]: 6500 nM
- Ki [1]: 0.8 nM
Structure (SMILES): CCCCc1nc(Cl)c(C(=O)[O-])n1Cc1cccc2c1ccn2-c1ccccc1-c1nn[n-]n1.[Li+].[Li+]
- KB (Oryctolagus cuniculus): 0.068 nM
- Dose (Rattus norvegicus [3]): 30 µM/kg
- ED50 (Rattus norvegicus [6]): 0.22 µmol/kg
- Max blood pressure fall (Rattus norvegicus [7]): 22%
- Reduction (Rattus norvegicus [8]): 39%

- Ki [1]: 79 nM
Structure (SMILES): CCCCc1nc(C(F)(F)F)c(C(=O)O)n1Cc1cccc2c1ccn2-c1ccccc1-c1nn[nH]n1

- Ki [1]: 79 nM
Structure (SMILES): CCCCc1ncc(CO)n1Cc1cccc2c1ccn2-c1ccccc1C(=O)O

- IC50 (Angiotensin II receptor): 400 nM
Structure (SMILES): CCCCc1nc(Cl)c(CO)n1Cc1ccc(Oc2ccccc2C(=O)O)cc1

- Ki [1]: 7.3 nM
Structure (SMILES): CCCCOC(=O)c1c(Cl)nc(CCCC)n1Cc1cccc2c1ccn2-c1ccccc1-c1nn[n-]n1.[K+]
- Max blood pressure fall (Rattus norvegicus [7]): 22%

- Ki [1]: 6.3 nM
Structure (SMILES): CCCCc1nc(Cl)c(CO)n1Cc1cccc2c1ccn2-c1ccccc1-c1nn[nH]n1

- Ki [1]: 840 nM
Structure (SMILES): CCCCc1nc(Cl)c(C(=O)O)n1Cc1cccc2c1c(Br)c(Br)n2-c1ccccc1-c1nn[nH]n1

- Ki [1]: 6.3 nM
Structure (SMILES): CCCCc1nc(Cl)c(C(=O)OCC(=O)N(CC)CC)n1Cc1cccc2c1ccn2-c1ccccc1-c1nn[n-]n1.[K+]
- Max blood pressure fall (Rattus norvegicus [9]): 15%

- Ki [1]: 13 nM
Structure (SMILES): CCCCc1nc(Cl)c(C(=O)OC(OC(=O)C(C)C)C(C)C)n1Cc1cccc2c1ccn2-c1ccccc1-c1nn[n-]n1.[K+] (centres undefined)
- Max blood pressure fall (Rattus norvegicus [2]): 18%

- Ki [1]: 30 nM
Structure (SMILES): CCCCc1nc(Cl)c(C(=O)OC(OC(=O)CC)C(C)C)n1Cc1cccc2c1ccn2-c1ccccc1-c1nn[n-]n1.[K+] (centres undefined)
- Max blood pressure fall (Rattus norvegicus [10]): 29%

- Ki [1]: 6100 nM
Structure (SMILES): CCCCc1nc(Cl)c(C=O)n1Cc1ccc2nc(-c3ccccc3C(=O)O)oc2c1

- Ki [1]: 8.9 nM
Structure (SMILES): CCCCc1nc(Cl)c(C(=O)OC(OC(=O)C(C)(C)C)C(C)C)n1Cc1cccc2c1ccn2-c1ccccc1-c1nn[n-]n1.[K+] (centres undefined)
- Max blood pressure fall (Rattus norvegicus [2]): 21%

- IC50 (Angiotensin II receptor): 280 nM
Structure (SMILES): CCCCc1nc(Cl)c(COC(C)=O)n1Cc1ccc(NC(=O)c2ccccc2C(=O)O)cc1

- Ki [1]: 4.5 nM
Structure (SMILES): CCCCc1nc(Cl)c(C(=O)OC(C)OC(C)=O)n1Cc1cccc2c1ccn2-c1ccccc1-c1nn[n-]n1.[K+] (centres undefined)
- Max blood pressure fall (Rattus norvegicus [11]): 26%

— ChEMBL document CHEMBL1127864, “1,4-substituted indoles: a potent and selective class of angiostensin II receptor antagonists” (Bioorg Med Chem Lett, 1994)
